# Several values for one entry are separate records, joined by “and”; a condition that tells them apart may be missing. Identical values can stand only once.
# Tests used:
# Type in all cases: cell-based, human
# MV4;11 cells [1] = assay: Annexin V apoptosis assay (flow cytometry); settings: for MV4;11 % Annexin V(+) cells: 7 days
# [2] = test system: MLL fusion target genes in MOLM13 cells; assay: Real time qRT-PCR gene expression
# Protocol: 0.5 × 10^6 – 3 × 10^6 cells from each sample were collected at days 7 or 8 of treatment, centrifuged at 211 xg, and RNA was extracted according to the RNeasy Mini Kit protocol (74106, Qiagen). Extracted RNA was quantified using Nanodrop 2000 UV-Vis spectrophotometer and 0.5–1 µg of total RNA was reverse transcribed into cDNA using High-Capacity cDNA Reverse Transcription Kit (4368814, Applied Biosystems™) according to the manufacturer’s protocol. Real-time PCR was performed using the CFX96 Touch Real-Time PCR Detection System (Bio-Rad). TaqMan Gene Expression Master Mix and TaqMan Gene Expression Assays were purchased from Applied Biosystems. Relative quantification of each gene transcript was carried out using the comparative Ct method as described in the Applied Biosystems User Bulletin no. 2. TaqMan Gene Expression Assays were used: HPRT1: Hs02800695_m1, DLX2: Hs00269993_m1, FLT3: Hs00174690_m1, HOXA9: Hs00365956_m1, MEF2C: Hs00231149_m1, MEIS1: Hs00180020_m1, MNDA: Hs00935905_m1.
# Supplementary Figure 10. Effect of AS-nc on gene expression in MLL leukemia cells. (a, b) Quantitative RT-PCR performed in MOLM13 cells (a) or MV4;11 cells (b) after 7 days of treatment with AS-nc. Gene expression was normalized to HPRT1 and referenced to the DMSO treated cells. Representative data from two independent experiments, each performed in triplicates, […]
# KOPN8 cells [3] = assay: Flow cytometry of CD11B expression (differentiation); settings: 7 days
# Protocol: (§1) In addition, 1 × 10^5 cells per sample were stained with Zombie Aqua™ dye (1:100 dilution) for 15 min using the Zombie Aqua™ Fixable Viability Kit (Zombie Aqua™ Fixable Viability Kit, Biolegend®) […] and then for 30 min with an anti-CD11B-PE antibody (982606, ICRF44, Biolegend®) or anti-CD11B-Pacific Blue (101224, BD BioLegend) antibody at 1:50 dilution, according to the No-wash Sequential Staining Protocol described by the manufacturer (BioLegend, Zombie Aqua Fixable Viability Kit). Cells were washed twice with 500 µL PBS containing 1% FBS and resuspended in 200 µL PBS with 1% FBS.
# MV4;11 cells [4] = assay: as above; settings: for MV4;11 % CD11B+ cells: 7 days
# Protocol: as §1
# KOPN8 cells [5] = assay: Annexin V apoptosis assay (flow cytometry); settings: 7 days
# SET2 cells = assay: MTT cell viability assay; settings: MTT, 7 days
# Protocol: (§2) Human leukemia cells K562, MV4;11 and RS4;11 (purchased from ATCC) and KOPN8, MOLM13 (purchased from DSMZ) were cultured in RPMI 1640 (Invitrogen) supplemented with 10% heat inactivated (h.i.) FBS and 1% penicillin/streptomycin (Invitrogen). SET2 cells (purchased from DSMZ) were cultured in RPMI 1640 supplemented with 20% h.i. FBS and 1% penicillin/streptomycin. Cells were plated at 1 × 10^5 to 2 × 10^5 cells/mL depending on cell line and treated with 0.25% DMSO or varying concentrations of compounds and incubated at 37 °C, 5% CO2 incubator for 7 days. Media was changed on day 3 or 4 and compounds were resupplied. […] Cell suspensions (100 μL) were transferred to the 96-well plates for each sample in quadruplicate at the time of media change. At day 7, 10 µL of MTT reagent (M6494, Molecular Probes™) was added to each well of the 96 well plate and incubated at 37 °C for 4 h. The formazan was then solubilized by adding 100 µL acidified 10% SDS solution and incubated at 37 °C overnight. Plates were read for absorbance at 570 nm using a PHERAstar BMG microplate reader. The experiments were performed two times in quadruplicates with calculation of mean and SD for each condition. Data were analyzed in Prism 8.0.0 to obtain GI50 values.
# RS4;11 cells = assay: MTT cell viability assay; settings: 7 days
# Protocol: as §2
smiles,measurement,setting,value
CN1CC(C(=O)NCc2ccc3c(-c4cccc(C(N)=O)c4)cn(C4CCN(S(=O)(=O)C(F)(F)F)CC4)c3c2)C1 [AS-nc],MV4;11 % Annexin V(+) cells,MV4;11 cells [1]; 2 uM,3.62% and 6.04% and 7.38%
same,MV4;11 % Annexin V(+) cells,MV4;11 cells [1]; 4 uM,2.35% and 3.67% and 4.83%
same,MV4;11 % Annexin V(+) cells,MV4;11 cells [1]; 6 uM,3% and 3.59% and 6.28%
same,apoptosis in the MLL leukemia cells (Annexin V positive cells),MV4;11 cells [1]; MV4;11 and KOPN8,not observed
same,"MOLM13 fold change vs DMSO, DLX2",[2]; AS-nc 2 uM,1.06 and 1.01 and 0.76
same,"MOLM13 fold change vs DMSO, FLT3",[2]; AS-nc 2 uM,1.07 and 0.95 and 0.92
same,"MOLM13 fold change vs DMSO, HOXA9",[2]; AS-nc 2 uM,1.01 and 1.09 and 0.84
same,"MOLM13 fold change vs DMSO, MEF2C",[2]; AS-nc 2 uM,0.98 and 1.02 and 0.94
same,"MOLM13 fold change vs DMSO, MEIS1",[2]; AS-nc 2 uM,1.03 and 1.08 and 0.97
same,"MOLM13 fold change vs DMSO, MNDA",[2]; AS-nc 2 uM,1.45 and 1.05 and 1.01
same,"MOLM13 fold change vs DMSO, DLX2",[2]; AS-nc 4 uM,1.02 and 0.96 and 0.71
same,"MOLM13 fold change vs DMSO, FLT3",[2]; AS-nc 4 uM,1.03 and 0.86 and 0.96
same,"MOLM13 fold change vs DMSO, HOXA9",[2]; AS-nc 4 uM,0.95 and 1 and 1.06
same,"MOLM13 fold change vs DMSO, MEF2C",[2]; AS-nc 4 uM,1 and 0.95 and 1.01
same,"MOLM13 fold change vs DMSO, MEIS1",[2]; AS-nc 4 uM,0.97 and 1.1 and 0.95
same,"MOLM13 fold change vs DMSO, MNDA",[2]; AS-nc 4 uM,1.29 and 1.57 and 1.44
same,"MOLM13 fold change vs DMSO, DLX2",[2]; AS-nc 6 uM,1.04 and 1 and 0.77
same,"MOLM13 fold change vs DMSO, FLT3",[2]; AS-nc 6 uM,1.07 and 0.95 and 0.88
same,"MOLM13 fold change vs DMSO, HOXA9",[2]; AS-nc 6 uM,1.03 and 0.88 and 0.9
same,"MOLM13 fold change vs DMSO, MEF2C",[2]; AS-nc 6 uM,1.03 and 0.94 and 0.96
same,"MOLM13 fold change vs DMSO, MEIS1",[2]; AS-nc 6 uM,0.86 and 1.09 and 0.93
same,"MOLM13 fold change vs DMSO, MNDA",[2]; AS-nc 6 uM,1.31 and 1.06 and 0.93
same,"expression of MLL fusion target genes (MEF2C, DLX2, FLT3, HOXA9)",[2]; MOLM13 and MV4;11,no changes
same,KOPN8 % CD11B+ cells,KOPN8 cells [3]; 2 uM,0.42% and 0.43% and 0.48%
same,KOPN8 % CD11B+ cells,KOPN8 cells [3]; 4 uM,0.64% and 0.72% and 0.67%
same,KOPN8 % CD11B+ cells,KOPN8 cells [3]; 6 uM,0.89% and 0.7% and 0.72%
same,MV4;11 % CD11B+ cells,MV4;11 cells [4]; 2 uM,1.31% and 1.08% and 1.06%
same,MV4;11 % CD11B+ cells,MV4;11 cells [4]; 4 uM,0.67% and 0.84% and 0.66%
same,MV4;11 % CD11B+ cells,MV4;11 cells [4]; 6 uM,1.1% and 1.04% and 1.27%
same,differentiation in MLL leukemia cells,MV4;11 cells [4]; MV4;11 and KOPN8,not observed
same,KOPN8 % Annexin V(+) cells,KOPN8 cells [5]; 2 uM,6.32% and 5.25% and 5.31%
same,KOPN8 % Annexin V(+) cells,KOPN8 cells [5]; 4 uM,7.36% and 6.41% and 6.28%
same,KOPN8 % Annexin V(+) cells,KOPN8 cells [5]; 6 uM,7.96% and 6.03% and 6.25%
same,% activity SET2,SET2 cells; log[compound] -4.92082,98.5542% and 101.644% and 102.951% and 102.436%
same,% activity SET2,SET2 cells; log[compound] -5.22185,96.2567% and 98.5146% and 98.9107% and 94.9495%
same,% activity SET2,SET2 cells; log[compound] -5.52288,90.1168% and 94.8703% and 93.8007% and 101.723%
same,% activity SET2,SET2 cells; log[compound] -5.82391,80.8081% and 86.1953% and 84.7693% and 93.5235%
same,% activity SET2,SET2 cells; log[compound] -6.12494,93.2858% and 94.8703% and 102.04% and 107.625%
same,% activity SET2,SET2 cells; log[compound] -6.42597,105.803% and 101.208% and 102.278% and 90.711%
same,% activity RS4;11,RS4;11 cells; log[compound] -4.92082,85.5125% and 87.6993% and 89.3394% and 75.672%
same,% activity RS4;11,RS4;11 cells; log[compound] -5.22185,105.376% and 104.647% and 93.5307% and 91.5262%
same,% activity RS4;11,RS4;11 cells; log[compound] -5.52288,102.096% and 100.638% and 93.713% and 78.4055%
same,% activity RS4;11,RS4;11 cells; log[compound] -5.82391,120.137% and 113.941% and 76.4009% and 77.1298%
same,% activity RS4;11,RS4;11 cells; log[compound] -6.12494,99.7267% and 104.647% and 93.8952%
same,% activity RS4;11,RS4;11 cells; log[compound] -6.42597,106.287% and 103.553% and 98.8155% and 91.344%

# Reference: PMC8121805, “Discovery of first-in-class inhibitors of ASH1L histone methyltransferase with anti-leukemic activity” (Nature Communications, 2021)
